Assay results: patent US8138168B1 (Takeda Pharmaceutical Company Limited, priority 2007, dated 2012)

Biological target: T1, Recombinant human renin (Homo sapiens, UniProt P00797)
T1 construct: isolate the active form (residues 67-406); made in house; host or cells: FreeStyle 293-F cells (transient expression of pcDNA3.1(+)/hREN)
T1 sequence (P00797 67-406): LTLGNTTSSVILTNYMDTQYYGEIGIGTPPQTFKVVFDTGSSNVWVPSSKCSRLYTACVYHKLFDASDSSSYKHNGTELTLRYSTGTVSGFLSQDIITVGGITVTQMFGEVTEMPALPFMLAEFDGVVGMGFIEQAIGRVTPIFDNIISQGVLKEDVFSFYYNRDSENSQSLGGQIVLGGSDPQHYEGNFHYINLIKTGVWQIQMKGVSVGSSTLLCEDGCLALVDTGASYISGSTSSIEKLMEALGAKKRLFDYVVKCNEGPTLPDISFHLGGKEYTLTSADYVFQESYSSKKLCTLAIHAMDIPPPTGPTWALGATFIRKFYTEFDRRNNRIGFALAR
Assay: In vitro enzymatic activity assay of renin inhibitors (fluorogenic peptide substrate)
Format: biochemical
Details: read-out: IC50 of Exemplified Compounds Against Renin
Method in brief: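 Recombinant human renin (3 nM final) pre-incubated 10 min at 37 °C with compounds in pH 7.4 Hepes/EDTA/DTT/0.1 mg/mL BSA/Brij35 buffer (optionally plus 2% BSA), 5% DMSO final; fluorogenic QXL520/HiLyteFluo488 peptide substrate added.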

IC50	SMILES
100 to 1000 nM	COCCCn1c([C@@H]2CCCN(C(=O)[C@@H]3CN(S(=O)(=O)c4ccc(OC)cc4[N+](=O)[O-])C[C@H]3N)C2)nc2ccccc21 [Compound 381, ((3R,4S)-4-amino-1-(4-methoxy-2-nitrophenylsulfonyl)pyrrolidin-3-yl)((R)-3-(1-(3-methoxypropyl)-1H-benzo[d]imidazol-2-yl)piperidin-1-yl)methanone]
> 1000 nM	COCCCn1c([C@@H]2CCCN(C(=O)[C@@H]3CN(C(=O)Nc4ccc(Cl)cc4)C[C@H]3N)C2)nc2ccccc21 [Compound 388, (3S,4R)-3-amino-N-(4-chlorophenyl)-4-((R)-3-(1-(3-methoxypropyl)-1H-benzo[d]imidazol-2-yl)piperidine-l-carbonyl)pyrrolidine-1-carboxamide]
< 100 nM	COCCCn1c([C@@H]2CCCN(C(=O)C[C@H](N)Cc3ccc(-c4ccc(NC(C)=O)cc4)cc3)C2)nc2ccccc21 [Compound 129, N-(4′-((R)-2-amino-4-((R)-3-(1-(3-methoxypropyl)-1H-benzo[d]imidazol-2-yl)piperidin-1-yl)-4-oxobutyl)biphenyl-4-yl)acetamide]
< 100 nM	COCCCn1c([C@@H]2CCCN(C(=O)C[C@H](N)Cc3ccc(-c4ccnc(O)c4)cc3)C2)nc2ccccc21 [Compound 437, (R)-3-amino-4-(4-(2-hydroxypyridin-4-yl)phenyl)-1-((R)-3-(1-(3-methoxypropyl)-1H-benzo[d]imidazol-2-yl)piperidin-1-yl)butan-1-one]
100 to 1000 nM	COCCCn1c([C@@H]2CCCN(C(=O)[C@@H]3CN(S(=O)(=O)c4ccc(C(C)(C)C)cc4)C[C@H]3N)C2)nc2ccccc21 [Compound 374, ((3R,4S)-4-amino-1-(4-tert-butylphenylsulfonyl)pyrrolidin-3-yl)((R)-3-(1-(3-methoxypropyl)-1H-benzo[d]imidazol-2-yl)piperidin-1-yl)methanone]
> 1000 nM	COCCCn1c([C@@H]2CCCN(C(=O)C[C@H](N)c3cccc(OC)c3)C2)nc2ccccc21 [Compound 121]
100 to 1000 nM	NC(=O)CCn1c([C@@H]2CCCN(C(=O)C[C@H](N)Cc3ccc(-c4cnc(N)nc4)cc3)C2)nc2ccccc21 [Compound 481, 3-(2-((R)-1-((R)-3-amino-4-(4-(2-aminopyrimidin-5-yl)phenyl)butanoyl)piperidin-3-yl)-1H-benzo[d]imidazol-1-yl)propanamide]
> 1000 nM	COCCCn1c([C@H]2CCCN(C(=O)C[C@H](N)Cc3ccc(Cl)cc3)C2)nc2ccccc21 [Compound 68, (R)-3-amino-4-(4-chlorophenyl)-1-((S)-3-(1-(3-methoxypropyl)-1H-benzo[d]imidazol-2-yl)piperidin-1-yl)butan-1-one]
< 100 nM	COCCCn1c([C@@H]2CCCN(C(=O)C[C@H](N)Cc3ccc(-c4ccc(NC(=O)COC)cc4)cc3)C2)nc2ccccc21 [Compound 197, N-(4′-((R)-2-amino-4-((R)-3-(1-(3-methoxypropyl)-1H-benzo[d]imidazol-2-yl)piperidin-1-yl)-4-oxobutyl)biphenyl-4-yl)-2-methoxyacetamide]
100 to 1000 nM	COCCCn1c([C@@H]2CCCN(C(=O)C[C@H](N)CNC(=O)c3cccc(Oc4ccccc4)c3)C2)nc2ccccc21 [Compound 270, N-((S)-2-amino-4-((R)-3-(1-(3-methoxypropyl)-1H-benzo[d]imidazol-2-yl)piperidin-1-yl)-4-oxobutyl)-3-phenoxybenzamide]
> 1000 nM	O=C(C1CNC1)N1CCCC(c2nc3ccccc3[nH]2)C1 (stereo not drawn) [Compound 55, (3-(1H-benzo[d]imidazol-2-yl)piperidin-1-yl)(azetidin-3-yl)methanone]
100 to 1000 nM	COCCCn1c([C@@H]2CCCN(C(=O)[C@@H]3CN(S(=O)(=O)c4ccc(OC)c(OC)c4)C[C@H]3N)C2)nc2ccccc21 [Compound 372, ((3R,4S)-4-amino-1-(3,4-dimethoxyphenylsulfonyl)pyrrolidin-3-yl)((R)-3-(1-(3-methoxypropyl)-1H-benzo[d]imidazol-2-yl)piperidin-1-yl)methanone]
100 to 1000 nM	COCCCn1c([C@@H]2CCCN(C(=O)C[C@H](N)Cc3ccc4ccccc4c3)C2)nc2c(OC)cccc21 [Compound 104, (R)-3-amino-1((R)-3-(4-methoxy-1-(3-methoxypropyl)-1H-benzo[d]imidazol-2-yl)piperidin-1-yl)-4-(naphthalen-2-yl)butan-1-one]
100 to 1000 nM	COCCCn1c([C@@H]2CCCN(C(=O)C[C@H](N)CNC(=O)c3ccc(-c4ccccc4[N+](=O)[O-])o3)C2)nc2ccccc21 [Compound 275, N-((S)-2-amino-4-((R)-3-(1-(3-methoxypropyl)-1H-benzo[d]imidazol-2-yl)piperidin-1-yl)-4-oxobutyl)-5-(2-nitrophenyl)furan-2-carboxamide]
100 to 1000 nM	NC(=O)CCn1c([C@@H]2CCCN(C(=O)C[C@H](N)Cc3ccc(-c4ccc5c(c4)OC(F)(F)O5)cc3)C2)nc2ccccc21 [Compound 483, 3-(2-((R)-1-((R)-3-amino-4-(4-(2,2-difluorobenzo[d][1,3]dioxol-5-yl)phenyl)butanoyl)piperidin-3-yl)-1H-benzo[d]imidazol-1-yl)propanamide]
100 to 1000 nM	CC(=O)NCCn1c([C@@H]2CCCN(C(=O)C[C@H](N)Cc3ccc(-c4ccc5c(c4)OCCO5)cc3)C2)nc2ccccc21 [Compound 449, N-(2-(2-((R)-1-((R)-3-amino-4-(4-(2,3-dihydrobenzo[b][1,4]dioxin-6-yl)phenyl)butanoyl)piperidin-3-yl)-1H-benzo[d]imidazol-1-yl)ethyl)acetamide]
> 1000 nM	C[C@@H](N)C(=O)N1CCCC(c2nc3ccccc3[nH]2)C1 (stereo partly drawn) [Compound 50, (2R)-1-(3-(1H-benzo[d]imidazol-2-yl)piperidin-1-yl)-2-aminopropan-1-one]
> 1000 nM	O=C(Nc1cccnc1)N1CCCC(c2nc3ccccc3[nH]2)C1 (stereo not drawn) [Compound 20, 3-(1H-benzo[d]imidazol-2-yl)-N-(pyridin-3-yl)piperidine-1-carboxamide]
100 to 1000 nM	CCOc1ccccc1NC(=O)NC[C@@H](N)CC(=O)N1CCC[C@@H](c2nc3ccccc3n2CCCOC)C1 [Compound 285, 1-((S)-2-amino-4-((R)-3-(1-(3-methoxypropyl)-1H-benzo[d]imidazol-2-yl)piperidin-1-yl)-4-oxobutyl)-3-(2-ethoxyphenyl)urea]
> 1000 nM	COCCCn1c(C2CCCN(C(=O)CC(N)Cc3ccc4ccccc4c3)C2)nc2ccc(=O)[nH]c21 [Compound 101, (R)-2-(1-(3-amino-4-(naphthalen-2-yl)butanoyl)piperidin-3-yl)-3-(3-methoxypropyl)-3H-imidazo[4,5-b]pyridin-5(4H)-one]
> 1000 nM	O=C(Nc1ccccc1-c1ccccc1)N1CCCC(c2nc3ccccc3[nH]2)C1 (stereo not drawn) [Compound 16, 3-(1H-benzo[d]imidazol-2-yl)-N-(biphenyl-2-yl)piperidine-1-carboxamide]
100 to 1000 nM	COCCCn1c([C@@H]2CCCN(C(=O)[C@@H]3CN(S(=O)(=O)c4ccc5c(c4)CCO5)C[C@H]3N)C2)nc2ccccc21 [Compound 355, ((3R,4S)-4-amino-1-(2,3-dihydrobenzofuran-5-ylsulfonyl)pyrrolidin-3-y1)((R)-3-(1-(3-methoxypropyl)-1H-benzo[d]imidazol-2-yl)piperidin-1-yl)methanone]
< 100 nM	COCCCn1c([C@@H]2CCCN(C(=O)C[C@H](N)Cc3ccc(-c4ccco4)cc3)C2)nc2ccccc21 [Compound 146, (R)-3-Amino-4-(4-(furan-2-yl)phenyl)-1-((R)-3-(1-(3-methoxypropyl)-1H-benzo[d]imidazol-2-yl)piperidin-1-yl)butan-1-one]
< 100 nM	COCCCn1c([C@@H]2CCCN(C(=O)[C@@H]3CN(S(=O)(=O)c4ccc5[nH]c(=O)[nH]c5c4)C[C@H]3N)C2)nc2ccccc21 [Compound 338]
100 to 1000 nM	COCCCn1c([C@@H]2CCCN(C(=O)C[C@H](N)CNS(=O)(=O)C(C)C)C2)nc2ccccc21 [Compound 312, N-((S)-2-amino-4-((R)-3-(1-(3-methoxypropyl)-1H-benzo[d]imidazol-2-yl)piperidin-1-yl)-4-oxobutyl)propane-2-sulfonamide]
100 to 1000 nM	CCCSc1ncccc1C(=O)NC[C@@H](N)CC(=O)N1CCC[C@@H](c2nc3ccccc3n2CCCOC)C1 [Compound 307, N-((S)-2-amino-4-((R)-3-(1-(3-methoxypropyl)-1H-benzo[d]imidazol-2-yl)piperidin-1-yl)-4-oxobutyl)-2-(propylthio)nicotinamide]
> 1000 nM	O=C(NC(=O)N1CCCC(c2nc3ccccc3[nH]2)C1)c1ccccc1 (stereo not drawn) [Compound 5, 3-(1H-benzo[d]imidazol-2-yl)-N-benzoylpiperidine-1-carboxamide]
> 1000 nM	O=C(Nc1ccc(Cl)c(C(F)(F)F)c1)N1CCCC(c2nc3ccccc3[nH]2)C1 (stereo not drawn) [Compound 7, 3-(1H-benzo[d]imidazol-2-yl)-N-(4-chloro-3-(trifluoromethyl)phenyl)piperidine-1-carboxamide]
< 100 nM	COCCCn1c([C@@H]2CCCN(C(=O)C[C@H](N)Cc3ccc(-c4ccc5[nH]ncc5c4)cc3)C2)nc2c(C)cccc21 [Compound 499, (R)-4-(4-(1H-indazol-5-yl)phenyl)-3-amino-1-((R)-3-(1-(3-methoxypropyl)-4-methyl-1H-benzo[d]imidazol-2-yl)piperidin-1-yl)butan-1-one]
> 1000 nM	O=C(C1CCCN1)N1CCCC(c2nc3ccccc3[nH]2)C1 (stereo not drawn) [Compound 45, (3-(1H-benzo[d]imidazol-2-yl)piperidin-1-yl)(pyrrolidin-2-yl)methanone]
